Legend:
MIN6 cells [1] = experiment: Insulin secretion in PA-induced insulin-resistant MIN6 cells; type: cell-based, mouse; details: PA-induced IR model, 10 μmol/L, 24 h, 2.8 and 16.7 mmol/L glucose; P<0.001
Experimental: MIN6 cells were seeded in 24-well plates and cultured as described in step 2.1 to a cell confluency of more than 80% and administrated in the following groups, with 12 replicates per group: (1) normal control group (Con): cultured with blank 1640 medium; (2) insulin resistance model panel (IR): treated with 0.125 mmol/L PA for 24 h to induce establishment of an insulin resistance model; (3) ADD-16 administration group (ADD): 10 μmol/L ADD-16 intervention was administered for 24 h after successful establishment of the insulin resistance model; (4) TAK875 control group (TAK875): 10 μmol/L TAK875 was administered as a positive control drug intervention for 24 h after successful establishment of the insulin resistance model; (5) metformin control group (MT): 10 mmol/L metformin was administered as a positive control drug intervention for 24 h after successful establishment of the insulin resistance model; (6) sitagliptin control group (ST): 10 μmol/L sitagliptin was administered as a positive control drug intervention for 24 h after successful establishment of the insulin resistance model. After the group administration, the medium was aspirated and washed 2 times with a KRB buffer without sugar, followed by the addition of the KRB buffer without sugar. […] After incubation at 37° C. for 1 h, all the medium in the wells was aspirated and centrifuged at 2000 rmp/min for 20 min, and the supernatant was collected and stored at −20° C. The insulin content was measured for each group.

MIN6 cells [2] = experiment: Western Blot / immunofluorescence of insulin signaling related molecules in insulin-resistant MIN6 cells; type: cell-based, mouse; details: insulin-resistant MIN6 cells, 24 h, P<0.001
Experimental: MIN6 cells were seeded in culture dishes at the appropriate density and cultured as described in step 2.1 to a confluency of about 80%. Cells were divided into the following 5 groups: (1) normal control group (Con): cultured with blank 1640 medium; (2) insulin resistance model panel (IR): treatment with 0.125 mmol/L PA for 24 h to induce establishment of a MIN6 cell insulin resistance model; (3) 3 μmol/L ADD-16 administration group (ADD I): 3 μmol/L ADD-16 intervention was given for 24 h after successful establishment of the insulin resistance model; (4) 10 μmol/L ADD-16 administration group (ADD II): 10 μmol/L ADD-16 intervention was given for 24 h after successful establishment of the insulin resistance model; (5) TAK875 control group (TAK875): 10 μmol/L TAK875 was administered as a positive control drug intervention for 24 h after successful establishment of the insulin resistance model. At the end of the group administration, groups of cells were harvested for WB or IF experiments.

STZ-induced T2DM rats [3] = experiment: Postprandial blood glucose in STZ-induced T2DM rats; type: in vivo, rat; details: end of administration
Experimental: (§1) 150 male SD rats, housed in cages in a clean constant temperature (23±2° C.) and humidity (55±10%) animal house, were manually adjusted on a daily 12 h/12 h diurnal light cycle with free access to water. After 3 days of adaptive feeding, 150 rats were randomly divided into normal and model groups. The normal (Con, n=15) group of rats remained on raw chow and the model group (n=135) of rats were given high fat high sugar chow. All rats were fed twice daily and the amount of feed was adjusted as needed to ensure adequate feed. After 8 weeks of group feeding, the model group rats were given an intraperitoneal injection of 25 mg/kg STZ solution with a 12 h fast prior to injection. After injection, feeding was continued as in the original method, blood was taken from the tail vein at 72 h for blood glucose measurement, and rats with fasting blood glucose levels ≥11.1 mmol/L on different days were screened for successful artificial induction of T2DM and administered in groups for the next experiment. 135 rats with successful modeling were randomly divided into 9 groups: […] (2) 0.01 mg/kg ADD-16 administration group (ADD I, n=15): daily administration of 0.01 mg/kg ADD-16 solution by gavage; (3) 0.1 mg/kg ADD-16 administration group (ADD II, n=15): daily administration of a 0.1 mg/kg ADD-16 solution by gavage; (4) 1 mg/kg ADD-16 administration group (ADD III, n=15): daily administration of a 1 mg/kg ADD-16 solution by gavage; (5) 3 mg/kg ADD-16 administration group (ADD IV, n=15): daily administration of a 3 mg/kg ADD-16 solution by gavage; (6) 10 mg/kg ADD-16 administration group (ADD V, n=15): daily administration of a 10 mg/kg ADD-16 solution by gavage; (7) 50 mg/kg ADD-16 administration group (ADD VI, n=15): daily administration of a 50 mg/kg ADD-16 solution by gavage; […] (9) Sitagliptin control group (ST, n=15): daily administration of a 6 mg/kg sitagliptin solution by gavage. […] Relevant indicators of lipid metabolism were measured after the end of the study.

STZ-induced T2DM rats [4] = experiment: Insulin tolerance test (ITT) in T2DM rats; type: in vivo, rat
Experimental: as §1, with “study. […] After the 120 min blood glucose value determination was completed, the diet was resumed. In the test, the condition of the rats was observed, and when abnormalities occurred, the experiment was stopped in time and a glucose solution was given by gavage to prevent death due to hypoglycemia.” for “study.”

[5] = MT group, 250 mg/kg daily by gavage
[6] = ST group, 6 mg/kg daily by gavage

SMILES | insulin secretion level in insulin-resistant MIN6 cells (in words) (MIN6 cells [1]) | expression of insulin signaling-related molecules, Western Blot (in words) (MIN6 cells [2]) | reduction in blood glucose compared to the TD group (STZ-induced T2DM rats [3]; [5]) [%] | decrease of ITT AUC compared to the TD group (STZ-induced T2DM rats [4]; [5]) [%] | reduction in blood glucose compared to the TD group (STZ-induced T2DM rats [3]; [6]) [%] | decrease of ITT AUC compared to the TD group (STZ-induced T2DM rats [4]; [6]) [%]
Cc1cc(OCCCS(C)(=O)=O)cc(C)c1-c1cccc(COc2ccc3c(c2)OC[C@H]3CC(=O)O)c1 [TAK875, reference compound] | even higher than in Con group | upregulate GPR40, PGC-1α, P-P38, P-EP300, PPARγ, P-AKT, PI3K, IRS1 and GLUT4 expression | – | – | – | –
CN(C)C(=N)N=C(N)N [metformin, reference compound] | – | – | 45.0 | 39.9 | – | –
N[C@@H](CC(=O)N1CCn2c(nnc2C(F)(F)F)C1)Cc1cc(F)c(F)cc1F [sitagliptin, reference compound] | even higher than in Con group | – | – | – | 61.5 | 51.4

Source: patent US20230124720A1, “APPLICATION OF ACRIDINEDIONE COMPOUND IN PREPARATION OF ANTI-DIABETIC DRUGS” (THE FOURTH MILITARY MEDICAL UNIVERSITY, priority 2020, published 2023)
